According to patent EP0795549A1, “Bis-aryloxy(amino)-triazinyl-oxy(amino)aryl derivatives, their preparation and their use as antiviral agents” (American Cyanamid Company, priority 1996, dated 1997):
Where a name gives a salt, the structure may show the parent alone. Read-outs that look alike come from different tables or passages of the source.

Key:
[1] = system: RSV (A2); test: viral yield reduction (growth inhibition) assay, RSV; format: cell-based, Respiratory Syncitial Virus; conditions: for IC50: human respiratory syncytial virus
Method: (§1) The compounds were tested for biological activity using viral yield reduction assays. Host cells (indicated as HF for human foreskin fibroblasts and as vero, the commonly used African green monkey cell line, in Tables 1 and 1a) were plated at 4 x 10^4 cells/well in cell growth medium with 2% fetal bovine serum or 2% calf serum in 96-well plates (0.1 ml/well) and incubated overnight. The compounds were added to individual wells to give final concentrations ranging from 50 to 0.1 µg/ml in two-fold concentration steps. After 1 hour, virus was added, and the incubation was continued for 4 days with RSV or CMV and for 2 days with HSV. At the end of the experiment, the amount of virus growth was quantitated and the yield reduction at various concentrations of compound was calculated. This allows estimation of the concentration of compound giving 50% reduction in virus growth (IC50).

[2] = system: HSV1 (Patton); test: viral yield reduction (growth inhibition) assay, HSV; format: cell-based, Herpes Simplex Virus; conditions: for Antiviral IC50 µg/ml HSV Vero: Table 1a, format not given; for IC50 µG/mL IN GROWTH […]/ HF: HF host cells
Method: as §1

[3] = system: CMV (Ad169); test: viral yield reduction (growth inhibition) assay, CMV; format: cell-based, Cytomegalovirus; conditions: for Antiviral IC50 µg/ml CMV /HF: Table 1a; for IC50 µG/mL IN GROWTH […]/ HF: HF host cells
Method: as §1

[4] = system: CMV (Ad169); test: viral plaque reduction assay, CMV; format: cell-based, Cytomegalovirus; conditions: CMV (Ad169), HF host cells; for IC50: Human betaherpesvirus 5, read-out: IC50µG/mL IN PLAQUE ASSAY CMV/ HF
[5] = system: RSV A2; format: in vivo, cotton rats; conditions: rat, in vivo
[6] = system: RSV; test: viral plaque reduction assay, RSV; format: cell-based, Respiratory Syncitial Virus; conditions: RSV (A2), vero host cells
[7] = HF host cells, read-out: IC50 µG/mL IN GROWTH […]/ HF
[8] = vero host cells, read-out: IC50 µG/mL IN GROWTH […]/ VERO
[9] = Table 1a, HF, yield reduction or plaque format not specified
[10] = Human betaherpesvirus 5, HF host cells, read-out: IC50 µG/mL IN GROWTH […]/ HF

## O=S(=O)(O)c1cc(O)ccc1-c1ccc(O)cc1S(=O)(=O)O [Example 17, 4,4'-Dihydroxybiphenyl-2,2'-disulfonic acid]
[1]; [7]
  IC50: > 50 µg/mL
[1]; [8]
  IC50: > 50 µg/mL
[2]; Human alphaherpesvirus 1, HSV1 (Patton), vero host cells, read-out: IC50 µG/mL IN GROWTH INHIBITION HSV/ VERO
  IC50: > 50 µg/mL

## 5,5'-Dimethyl-4,4'-bis[4,6-di[3-aminophenyl-N,N-bis(2-carbamoyl-ethyl)sulfonylimino]-1,3,5-triazin-2-ylamino]-biphenyl-2,2'-disulfonic acid, disodium salt [Example 20]
[1]; HF host cells
  IC50 µG/mL IN GROWTH […]/ HF: 0.5 µg/mL
[2]; HSV1 (Patton), vero host cells
  IC50 µG/mL IN GROWTH […]/ VERO: 40 µg/mL

## 4-[4,6-Di[3-aminophenyl-N,N-bis(2-carbamoylethyl)sulfonylimino]-1,3,5-triazin-2-ylamino]-4'-[4-[3-aminophenyl-N,N-bis(2-carbamoylethyl)sulfonylimino]-6-[3 -aminophenyl-N,N bis(3-propionic acid)]-1,3,5-triazin-2-ylamino]-stilbene-2,2'-disulphonic acid, disodium salt [Example 10]
[1]; HF host cells
  IC50 µG/mL IN GROWTH […]/ HF: < 3 µg/mL
[1]; vero host cells
  IC50 µG/mL IN GROWTH […]/ VERO: 0.7 µg/mL

## 4,4'-Bis[4,6-di[3-aminophenyl-N,N-bis(3-hydroxypropyl)-sulfonylimino]-1,3,5-triazin-2-ylamino]-biphenyl-2,2'-disulfonic acid, disodium salt [Example 59]
[1]; [9]
  Antiviral IC50 µg/ml RSV/ HF: 0.5 µg/mL
[2]; HSV1 (Patton)
  Antiviral IC50 µg/ml HSV Vero: 20 µg/mL
[3]; HF, format not given
  Antiviral IC50 µg/ml CMV /HF: 4 µg/mL

## NS(=O)(=O)c1cccc(Nc2nc(Nc3cccc(S(N)(=O)=O)c3)nc(Nc3ccc(-c4ccc(Nc5nc(Nc6cccc(S(N)(=O)=O)c6)nc(Nc6cccc(S(N)(=O)=O)c6)n5)cc4S(=O)(=O)O)c(S(=O)(=O)O)c3)n2)c1 [Example 16, 4,4'-Bis[4,6-di[3-aminophenylsylphonylimido]-1,3,5-triazin-2-ylamino]-biphenyl-2,2'-disulfonic acid, disodium salt]
[1]; [7]
  IC50: 5 µg/mL
[1]; [8]
  IC50: ~8.3 µg/mL
[3]; [10]
  IC50: 3 µg/mL
[4]
  IC50: 3 µg/mL

## NC(=O)c1ncn([C@@H]2O[C@H](CO)[C@@H](O)[C@H]2O)n1 [Ribavirin, ribavirin, reference compound]
[5]
  Fold red. log10: 0.8 log10
  Mean titer log10/g lung: 3.3 log10/g lung

## 4,4'-Bis[4,6-di[3-aminophenyl-N,N-bis(2-carbamoyl-ethyl)sulfonylimino]-1,3,5-triazin-2-yloxy]-biphenyl-2,2'-disulfonic acid, disodium salt [Example 19]
[1]; HF host cells
  IC50 µG/mL IN GROWTH […]/ HF: 2 µg/mL
[1]; vero host cells
  IC50 µG/mL IN GROWTH […]/ VERO: 3 µg/mL
[2]; HSV1 (Patton)
  IC50 µG/mL IN GROWTH […]/ HF: 30 µg/mL
[2]; HSV1 (Patton), vero host cells
  IC50 µG/mL IN GROWTH […]/ VERO: ~50 µg/mL
[3]
  IC50 µG/mL IN GROWTH […]/ HF: 12 µg/mL

## 4,4'-Bis[4,6-di[4-amino-N'-[3-aminophenyl-N,N-bis(2-hydroxyethyl)sulfonylimino]-benzensulfonamide]-1,3,5-triazin-2-ylamino]-stilbene-2,2'-disulfonic acid, disodium salt [Example 25]
[1]; vero host cells
  IC50 µG/mL IN GROWTH […]/ VERO: 30 µg/mL

## 4,4'-Bis[4-chloro-6-di[4-amino-N'-[3-aminophenyl-N,N-bis(2-carbamoylethyl)sulfonylimino]-benzamide]-1,3,5-triazin-2-ylamino]-stilbene-2,2' -disulfonic acid, disodium salt [Example 24]
[1]; vero host cells
  IC50 µG/mL IN GROWTH […]/ VERO: 50 µg/mL

## 4,4'-Bis[4,6-di[3-aminophenyl-N,N-bis(2-carbamoyl-ethyl)sulfonylimino]-1,3,5-triazin-2-ylamino]-bibenzyl-2,2'-disulfonic acid, disodium salt [Example 11]
[1]; HF host cells
  IC50 µG/mL IN GROWTH […]/ HF: 10 µg/mL
[1]; vero host cells
  IC50 µG/mL IN GROWTH […]/ VERO: 10 µg/mL
[3]
  IC50 µG/mL IN GROWTH […]/ HF: > 50 µg/mL

## 4,4'-Bis[4,6-di[4-aminophenyl-N,N-bis(2-carbamoyl-ethyl)sulfonylimino]-1,3,5-triazin-2-ylamino]-stilbene-2,2'-disulfonic acid, disodium salt [Example 12]
[6]
  IC50µG/mL IN PLAQUE ASSAY RSV/ VERO: 8 µg/mL
[4]
  IC50µG/mL IN PLAQUE ASSAY CMV/ HF: 10 µg/mL

## 4,4'-Bis[4,6-di[4-aminophenyl-N,N-bis(2-carbamoyl-ethyl)sulfonylimino]-1,3,5-triazin-2-ylamino]-biphenyl-2,2'-disulfonic acid, disodium salt [Example 13]
[1]; HF host cells
  IC50 µG/mL IN GROWTH […]/ HF: 8 µg/mL
[1]; vero host cells
  IC50 µG/mL IN GROWTH […]/ VERO: 8 µg/mL
[2]; HSV1 (Patton)
  IC50 µG/mL IN GROWTH […]/ HF: 10 µg/mL
[2]; HSV1 (Patton), vero host cells
  IC50 µG/mL IN GROWTH […]/ VERO: 30 µg/mL
[3]
  IC50 µG/mL IN GROWTH […]/ HF: 20 µg/mL

## NC(=O)CCN(CCC(N)=O)S(=O)(=O)c1cccc(Nc2nc(Cl)nc(Nc3cccc(S(=O)(=O)N(CCC(N)=O)CCC(N)=O)c3)n2)c1 [Example 6, 2-Chloro-4,6-di[3-aminophenyl-N,N-bis(2-carbamoyl-ethyl)sulfonylimino]-1,3,5-triazine]
[1]; [7]
  IC50: > 50 µg/mL
[1]; [8]
  IC50: > 50 µg/mL
[3]; [10]
  IC50: > 50 µg/mL

## 4',4-Bis-{4,6-bis-[3-(bis-carbamoylmethyl-1-sulfamoyl)-phenylamino]-[1,3,5]triazin-2-ylamino}-biphenyl-2,2'-dicarboxylic acid, disodium salt [Example 44]
[1]; [9]
  Antiviral IC50 µg/ml RSV/ HF: 0.6 µg/mL
[2]; HSV1 (Patton)
  Antiviral IC50 µg/ml HSV Vero: 15 µg/mL
[3]; HF, format not given
  Antiviral IC50 µg/ml CMV /HF: 1.5 µg/mL

## 9,9-Dioxo-2,7-Bis[4,6-di[3-aminophenyl-N,N-bis(2-carbamoylethyl)sulfonylimino]-1,3,5-triazin-2-ylamino]-dibenzothiophen-3,6-disulfonic acid, disodium salt [Example 23]
[6]
  IC50µG/mL IN PLAQUE ASSAY RSV/ VERO: 8 µg/mL
[4]
  IC50µG/mL IN PLAQUE ASSAY CMV/ HF: 20 µg/mL

## NS(=O)(=O)c1cccc(Nc2nc(Nc3cccc(S(N)(=O)=O)c3)nc(Nc3ccc(/C=C/c4ccc(Nc5nc(Nc6cccc(S(N)(=O)=O)c6)nc(Nc6cccc(S(N)(=O)=O)c6)n5)cc4S(=O)(=O)O)c(S(=O)(=O)O)c3)n2)c1 [Example 15, 4,4'-Bis[4,6-di[3-aminophenylsulphonylamido]-1,3,5-triazin-2-ylamino]-stilbene-2,2'-disulfonic acid, disodium salt]
[1]; [7]
  IC50: 7 µg/mL
[1]; [8]
  IC50: > 8.3 µg/mL
[3]; [10]
  IC50: 2 µg/mL
[4]
  IC50: 1 µg/mL

## 4-[4,6-Di[3-aminophenyl-N,N-bis(2-carbamoylethyl)sulfonylimino]-1,3,5-triazin-2-ylamino]-4'-[4-[3-aminophenyl-N,N-bis(2-carbamoylethyl)sulfonylimino]-6-[3 -aminophenyl-N-(2-carbamoylethyl)-N'-(3-propionic acid)]-1,3,5-triazin-2-ylamino]stilbene-2,2'-disulphonic acid, disodium salt [Example 9]
[1]; HF host cells
  IC50 µG/mL IN GROWTH […]/ HF: < 3 µg/mL
[1]; vero host cells
  IC50 µG/mL IN GROWTH […]/ VERO: 0.4 µg/mL
[6]
  IC50µG/mL IN PLAQUE ASSAY RSV/ VERO: 0.3 µg/mL
[4]
  IC50µG/mL IN PLAQUE ASSAY CMV/ HF: 10 µg/mL

## 4,4'-Bis[4,6-di[3-aminophenyl-N,N-bis(2-hydroxyethyl)sulfonyliminol-1,3,5-triazin-2-ylamino]-biphenyl-2,2'-disulfonic acid, disodium salt [Example 22]
[1]; HF host cells
  IC50 µG/mL IN GROWTH […]/ HF: 0.15 µg/mL
[1]; vero host cells
  IC50 µG/mL IN GROWTH […]/ VERO: 0.25 µg/mL
[3]
  IC50 µG/mL IN GROWTH […]/ HF: 4 µg/mL
[4]
  IC50µG/mL IN PLAQUE ASSAY CMV/ HF: 2 µg/mL

## 4,4'-Bis[4-chloro-6-[3-aminophenyl-N,N-bis(2-carbamoylethyl)sulfonylimino]-1,3,5-triazin-2-ylamino]-stilbene-2,2'-disulphonic acid, disodium salt [Example 8]
[1]; HF host cells
  IC50 µG/mL IN GROWTH […]/ HF: > 50 µg/mL
[1]; vero host cells
  IC50 µG/mL IN GROWTH […]/ VERO: > 50 µg/mL
[3]
  IC50 µG/mL IN GROWTH […]/ HF: > 50 µg/mL

## CC(O)CN(CC(C)O)S(=O)(=O)c1cccc(Nc2nc(Nc3cccc(S(=O)(=O)N(CC(C)O)CC(C)O)c3)nc(Nc3ccc(-c4ccc(Nc5nc(Nc6cccc(S(=O)(=O)N(CC(C)O)CC(C)O)c6)nc(Nc6cccc(S(=O)(=O)N(CC(C)O)CC(C)O)c6)n5)cc4C(=O)[O-])c(C(=O)[O-])c3)n2)c1.[Na+].[Na+] (stereo not drawn) [Example 41, 4,4'-Bis-(4,6-bis-{3-[bis-(2-hydroxy-propyl)-sulfamoyl]-phenylamino}-[1,3,5]triazin-2-ylamino)biphenyl-2,2'-dicarboxylic acid, disodium salt]
[1]; Table 1a, HF, yield reduction or plaque format not specified, read-out: Antiviral IC50 µg/ml RSV/ HF
  IC50: 2 µg/mL
[2]; Human alphaherpesvirus 1, Vero, read-out: Antiviral IC50 µg/ml HSV Vero
  IC50: > 50 µg/mL
[3]; Human betaherpesvirus 5, Table 1a, HF, format not given, read-out: Antiviral IC50 µg/ml CMV /HF
  IC50: 8 µg/mL

## 4-[4,6-Di[3-aminophenyl-N,N-bis(2-carbamoylethyl)sulfonylimino]-1,3,5-triazin-2-ylamino]-4'-[4-chloro-6-[3-aminophenyl-N,N-bis(2-carbamoylethyl)sulfonylimino] -1,3,5-triazin-2-ylamino]-stilbene-2,2'-disulphonic acid, disodium salt [Example 7]
[1]; HF host cells
  IC50 µG/mL IN GROWTH […]/ HF: 0.7 µg/mL
[1]; vero host cells
  IC50 µG/mL IN GROWTH […]/ VERO: 1 µg/mL
[6]
  IC50µG/mL IN PLAQUE ASSAY RSV/ VERO: 0.8 µg/mL
[4]
  IC50µG/mL IN PLAQUE ASSAY CMV/ HF: 10 µg/mL
